Active and inactive are the calls of the source. No cut-off for these calls is given here.
What was measured:
Homo sapiens [1] = species on record: Homo sapiens; assay: Selectivity ratio for human recombinant FAAH over human recombinant COX-2
Homo sapiens [2] = species on record: Homo sapiens; assay: Selectivity ratio for human recombinant FAAH over human recombinant MAGL
[3] = Selectivity ratio for human recombinant FAAH over ovine COX-1
[4] = target: Cannabinoid receptor 1 (Rattus norvegicus) (UniProt P20272); assay: Agonist activity at CB1 receptor in rat cerebellar membranes up to 10 uM incubated for 10 mins prior to testing by [35S]GTPgammaS binding assay; assay type: functional, cell membranes; details: Cerebellum, Membrane
[5] = target: Cannabinoid receptor 2 (Homo sapiens) (UniProt P34972); assay: Agonist activity at human CB2 receptor expressed in CHO cell membranes up to 10 uM incubated for 10 mins prior to testing by [35S]GTPgammaS binding assay; assay type: functional
[6] = target: T1, Lysophosphatidylserine lipase ABHD12 (Homo sapiens) (UniProt Q8N2K0); assay: Inhibition of human ABHD12 overexpressed in HEK293 cells assessed as 2-AG hydrolysis at 1 uM by fluorescent glycerol assay; assay type: cell-based
T1 sequence (whole entry): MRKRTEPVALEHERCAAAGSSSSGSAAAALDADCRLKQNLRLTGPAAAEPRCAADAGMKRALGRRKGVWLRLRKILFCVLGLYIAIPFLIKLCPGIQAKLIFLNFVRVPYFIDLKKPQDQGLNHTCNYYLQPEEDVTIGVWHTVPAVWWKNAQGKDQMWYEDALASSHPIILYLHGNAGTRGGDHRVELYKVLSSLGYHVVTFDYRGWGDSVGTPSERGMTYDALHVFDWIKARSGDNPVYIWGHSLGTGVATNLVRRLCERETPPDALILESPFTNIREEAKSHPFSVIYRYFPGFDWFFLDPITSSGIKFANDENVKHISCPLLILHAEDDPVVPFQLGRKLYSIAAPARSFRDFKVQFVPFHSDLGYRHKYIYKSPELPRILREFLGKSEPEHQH

[7] = target: T2, Prostaglandin G/H synthase 2 (Homo sapiens) (UniProt P35354); assay: Inhibition of human recombinant COX-2 assessed as inhibition of 2-AG cyclooxygenation at 100 uM measured within 10 to 50 secs relative to control
T2 sequence (whole entry): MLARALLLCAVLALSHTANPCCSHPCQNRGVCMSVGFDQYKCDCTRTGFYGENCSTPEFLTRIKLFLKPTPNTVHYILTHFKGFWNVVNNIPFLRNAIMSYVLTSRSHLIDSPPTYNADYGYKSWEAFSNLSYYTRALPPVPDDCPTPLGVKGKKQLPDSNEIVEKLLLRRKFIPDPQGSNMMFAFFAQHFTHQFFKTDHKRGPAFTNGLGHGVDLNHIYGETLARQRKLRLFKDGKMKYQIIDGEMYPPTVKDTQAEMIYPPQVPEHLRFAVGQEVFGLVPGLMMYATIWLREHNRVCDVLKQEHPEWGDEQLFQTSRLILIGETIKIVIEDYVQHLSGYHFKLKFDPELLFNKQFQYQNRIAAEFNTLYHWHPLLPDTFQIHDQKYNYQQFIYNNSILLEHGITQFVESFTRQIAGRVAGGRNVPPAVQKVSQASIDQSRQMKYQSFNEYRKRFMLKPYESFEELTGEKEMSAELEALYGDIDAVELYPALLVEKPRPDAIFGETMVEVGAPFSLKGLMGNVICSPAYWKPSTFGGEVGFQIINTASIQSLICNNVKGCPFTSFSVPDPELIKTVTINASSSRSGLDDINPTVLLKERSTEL

[8] = target: T2, Prostaglandin G/H synthase 2 (Homo sapiens); assay: Inhibition of human recombinant COX-2 assessed as inhibition of 2-AG cyclooxygenation at 30 uM measured within 10 to 50 secs relative to control
[9] = target: T2, Prostaglandin G/H synthase 2 (Homo sapiens); assay: Inhibition of human recombinant COX-2 assessed as inhibition of 2-AG cyclooxygenation at 10 uM measured within 10 to 50 secs relative to control
[10] = target: T2, Prostaglandin G/H synthase 2 (Homo sapiens); assay: Inhibition of human recombinant COX-2 using arachidonic acid as substrate assessed as oxygen consumption at 10 uM measured within 10 to 50 secs relative to control
[11] = target: T3, Lysophosphatidylserine lipase ABHD12 (Mus musculus) (UniProt Q99LR1); assay: Inhibition of TAMRA-FP-labeled ABHD12 in mouse brain membrane at 10 uM after 1 hr by fluorescent gel scanning assay; assay type: cell membranes
T3 sequence (whole entry): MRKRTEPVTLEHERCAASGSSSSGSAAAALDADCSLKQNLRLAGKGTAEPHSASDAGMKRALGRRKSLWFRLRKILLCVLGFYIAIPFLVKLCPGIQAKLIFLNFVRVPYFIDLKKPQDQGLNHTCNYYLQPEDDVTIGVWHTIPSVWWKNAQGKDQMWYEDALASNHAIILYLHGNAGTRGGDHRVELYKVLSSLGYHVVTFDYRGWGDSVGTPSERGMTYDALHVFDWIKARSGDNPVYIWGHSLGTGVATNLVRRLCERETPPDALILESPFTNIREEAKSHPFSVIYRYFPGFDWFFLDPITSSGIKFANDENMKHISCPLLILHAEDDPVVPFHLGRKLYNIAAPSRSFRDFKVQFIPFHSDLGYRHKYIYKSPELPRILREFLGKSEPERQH

[12] = target: T4, Fatty-acid amide hydrolase 1 (Homo sapiens) (UniProt O00519); assay: Reversible inhibition of human recombinant FAAH overexpressed in African green monkey COS7 cells using […] as substrate assessed as recovery of enzyme activity at 20 x IC50 preincubated for 60 mins followed by 500 fold dilution measured after 10 mins by HPLC analysis; assay type: cell-based; details: COS-7
T4 sequence (whole entry): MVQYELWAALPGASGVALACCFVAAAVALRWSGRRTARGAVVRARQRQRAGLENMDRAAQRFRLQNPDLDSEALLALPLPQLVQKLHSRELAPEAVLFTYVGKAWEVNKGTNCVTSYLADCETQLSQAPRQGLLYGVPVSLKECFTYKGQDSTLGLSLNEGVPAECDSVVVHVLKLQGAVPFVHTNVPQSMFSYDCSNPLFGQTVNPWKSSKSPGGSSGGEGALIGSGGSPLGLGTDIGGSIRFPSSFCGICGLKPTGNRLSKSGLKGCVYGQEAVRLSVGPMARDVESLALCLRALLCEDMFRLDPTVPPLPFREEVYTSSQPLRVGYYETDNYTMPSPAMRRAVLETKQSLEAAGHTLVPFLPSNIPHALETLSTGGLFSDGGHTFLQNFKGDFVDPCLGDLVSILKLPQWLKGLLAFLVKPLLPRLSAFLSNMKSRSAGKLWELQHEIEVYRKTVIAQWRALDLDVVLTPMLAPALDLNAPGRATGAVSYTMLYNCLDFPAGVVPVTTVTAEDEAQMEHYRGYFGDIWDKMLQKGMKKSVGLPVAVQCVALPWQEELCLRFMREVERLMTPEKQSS

[13] = target: T4, Fatty-acid amide hydrolase 1 (Homo sapiens); assay: Inhibition of human recombinant FAAH overexpressed in African green monkey COS7 cells using [3H]-anandamide as substrate at 10 to 100 uM preincubated for 10 to 60 mins by liquid scintillation counting analysis; assay type: cell-based; details: COS-7
[14] = target: T4, Fatty-acid amide hydrolase 1 (Homo sapiens); assay: Inhibition of human recombinant FAAH overexpressed in African green monkey COS7 cells using [3H]-anandamide as substrate at 3 to 30 uM preincubated for 10 to 60 mins by liquid scintillation counting analysis; assay type: cell-based; details: COS-7

Sequence of Cannabinoid receptor 2 (Homo sapiens) (P34972 whole entry): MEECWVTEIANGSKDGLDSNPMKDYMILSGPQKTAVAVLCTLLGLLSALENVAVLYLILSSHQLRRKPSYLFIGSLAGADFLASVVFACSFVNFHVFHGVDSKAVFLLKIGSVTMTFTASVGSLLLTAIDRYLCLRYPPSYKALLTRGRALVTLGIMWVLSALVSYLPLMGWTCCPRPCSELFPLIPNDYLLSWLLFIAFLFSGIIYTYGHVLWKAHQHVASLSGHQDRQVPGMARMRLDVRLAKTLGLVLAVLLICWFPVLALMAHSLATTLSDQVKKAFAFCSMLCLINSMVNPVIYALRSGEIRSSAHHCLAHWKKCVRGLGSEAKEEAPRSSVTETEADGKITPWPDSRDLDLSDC
Sequence of Cannabinoid receptor 1 (Rattus norvegicus) (P20272 whole entry): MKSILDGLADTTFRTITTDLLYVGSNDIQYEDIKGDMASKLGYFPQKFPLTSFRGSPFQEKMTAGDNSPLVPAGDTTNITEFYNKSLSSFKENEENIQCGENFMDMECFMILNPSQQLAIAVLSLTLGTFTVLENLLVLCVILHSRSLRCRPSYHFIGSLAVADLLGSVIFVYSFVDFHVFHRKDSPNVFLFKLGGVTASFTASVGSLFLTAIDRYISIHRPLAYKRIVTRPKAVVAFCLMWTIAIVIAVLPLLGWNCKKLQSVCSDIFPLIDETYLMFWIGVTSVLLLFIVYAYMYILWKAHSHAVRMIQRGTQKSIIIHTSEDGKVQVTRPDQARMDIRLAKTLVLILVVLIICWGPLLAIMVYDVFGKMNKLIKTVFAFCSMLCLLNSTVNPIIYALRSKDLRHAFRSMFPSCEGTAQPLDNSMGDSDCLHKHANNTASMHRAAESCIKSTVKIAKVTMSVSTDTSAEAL

Selectivity ratio (Homo sapiens [1]): > 900 | Selectivity ratio (Homo sapiens [2]): > 900 | Selectivity ratio [3]: > 900 | Activity [4]: inactive | Activity [5]: inactive | inhibition [6]: inactive | inhibition [7]: 30% | inhibition [8]: 20% | inhibition [9]: 10% | inhibition [10]: 20% | inhibition [11]: inactive | inhibition [12]: Active | inhibition [13]: Active | inhibition [14]: Active
Compound: COc1nn([C@@H](C)c2ccc(CC(C)C)cc2)c(=O)o1

From ChEMBL document CHEMBL3085700 (J Med Chem, 2013)
